Values quoted from earlier work as cited in PMC9255981 (The Oncologist, 2022).

Test system: patients
Details: phase I study ref [1],[2]

grade of blood CPK increase events (all events): 1 | Myalgia, regardless of causality: 10 % of patients | blood CPK increase: 3.9%
SMILES: C=CC(=O)N1CCN(c2nc(=O)n(-c3c(C)ccnc3C(C)C)c3nc(-c4c(O)cccc4F)c(F)cc23)[C@@H](C)C1 [sotorasib]
most frequent treatment-related AEs (>10%): diarrhea, AST increased, and ALT increased
